Test results from patent publication US7420068B2, “Crystalline composition containing escitalopram” (H. Lundbeck A/S, priority 2004, dated 2008).
Where a name gives a salt, the structure may show the parent alone.

What was measured:
Assay type in all cases: physicochemical
[1] = Particle size distribution by laser diffraction (Sympatec Helos, 1 bar dispersive pressure)
Excerpt: As used herein, “particle size distribution” means the cumulative volume size distribution of equivalent spherical diameters as determined by laser diffraction at 1 bar dispersive pressure in a Sympatec Helos equipment. “Median particle size” “MPS” and X50 refer, correspondingly, each to the median or 50% quantile of said particle size distribution. “X10” and “X95” refer, correspondingly, to the 10% respectively the 95% quantile. “X10/X50” and “X50/X95” refer to the ratio between X10 and X50 respectively X50 and X95.

[2] = Particle size of prior-art crystalline products (background statement); settings: product of the known preparation process
[3] = Flow properties of prior-art crystalline products (background statement); settings: product of the known preparation process

SMILES	X50 (median particle size) ([1]; S-diol batches, production scale recrystallisation from ethanol) [µm]	X10/X50 ([1]; S-diol batches, ratio of 10% quantile to median)	X50/X95 ([1]; S-diol batches, ratio of median to 95% quantile)	Particle size at quantile 10% ([1]; Sympatec Helos, quantile 10%) [μm]	Particle size at quantile 50% ([1]; Sympatec Helos, quantile 50%) [μm]	Particle size at quantile 90% ([1]; Sympatec Helos, quantile 90%) [μm]	particle size [2]	flow properties [3]
CN(C)CCC[C@@]1(c2ccc(F)cc2)OCc2cc(C#N)ccc21 [Example 1, escitalopram oxalate]	171	0.13	0.44	13	163	455	–	–
CN(C)CCC[C@@]1(c2ccc(F)cc2)OCc2cc(C#N)ccc21.O=C(O)C(=O)O [escitalopram oxalate, (S)-1-[3-(dimethylamino)propyl]-1-(4-fluorophenyl)-1,3-dihydro-5-isobenzofurancarbonitrile oxalate]	–	–	–	–	–	–	2-20 μm	similarly poor
CN(C)CCCC1(c2ccc(F)cc2)OCc2cc(C#N)ccc21 (stereo not shown) [citalopram hydrobromide]	–	–	–	–	–	–	2-20 μm	very poor
